This is an account of results in patent publication US20230012368A1 (Hoffmann-La Roche Inc., priority 2018, published 2023).

Structures are written as SMILES. Counter-ions that a name gives are not always drawn.

What is called IC90 is the point of the concentration-response curve where the effect stands at 90%.

The test system of one assay is Acinetobacter baumannii ATCC 17978. Nature of the assay: Antimicrobial susceptibility testing: 90% growth inhibitory concentration (IC90) determination. The note with it: 90% growth inhibitory concentration; Acinetobacter baumannii ATCC17978; Iso-Sensitest broth, OD 600 nm over 16h; read-out: ATCC17978 IC90. The format is cell-based. An outline of the steps: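 Compounds serially twofold diluted (e.g. 50 to 0.097 μM final) in Iso-Sensitest broth, inoculated at ~5×10^(5) CFU/ml, incubated at 35±2° C. OD600 read every 20 minutes over 16h. IC90 taken as concentration inhibiting 90% of growth during logarithmic phase.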
`CCc1cc(Nc2nccn3c(-c4ccc(OC)c(F)c4F)cnc23)ccc1C(=O)N[C@@H](CN)C(=O)OC` [Example 308, methyl (2S)-3-amino-2-[[4-[[3-(2,3-difluoro-4-methoxyphenyl)imidazo[1,2-a]pyrazin-8-yl]amino]-2-ethylbenzoyl]amino]propanoate; hydrochloride]: the IC90 turned out to be 660 nM. On the same count and under the same terms, under `CCc1cc(Nc2nccn3c(-c4ccc(OC)c(F)c4F)cnc23)ccc1C(=O)N[C@H](CN)C(=O)OC` [Example 310, methyl (2R)-3-amino-2-[[4-[[3-(2,3-difluoro-4-methoxyphenyl)imidazo[1,2-a]pyrazin-8-yl]amino]-2-ethylbenzoyl]amino]propanoate; hydrochloride] stands 800 nM; under `CCc1cc(Nc2nccn3c(-c4ccc(OC(F)F)c(F)c4F)cnc23)ccc1C(=O)N[C@@H](C)CN` [Example 312, N-[(2S)-1-aminopropan-2-yl]-4-[[3-[4-(difluoromethoxy)-2,3-difluorophenyl]imidazo[1,2-a]pyrazin-8-yl]amino]-2-ethylbenzamide; hydrochloride], 1200 nM; under `CCc1cc(Nc2nccn3c(-c4ccc(OC(F)F)c(F)c4F)cnc23)ccc1C(=O)NC(CCN)C(F)F` (centres unmarked) [Example 315, N-(4-amino-1,1-difluorobutan-2-yl)-4-[[3-[4-(difluoromethoxy)-2,3-difluorophenyl]imidazo[1,2-a]pyrazin-8-yl]amino]-2-ethylbenzamide; hydrochloride], 1300 nM. Still for that read-out and setting: to `CCc1cc(Nc2nccn3c(-c4ccc(OC(F)F)c(F)c4F)cnc23)ccc1C(=O)NC(CC)CCN` (centres unmarked) [Example 317, N-(1-aminopentan-3-yl)-4-[[3-[4-(difluoromethoxy)-2,3-difluorophenyl]imidazo[1,2-a]pyrazin-8-yl]amino]-2-ethylbenzamide; hydrochloride] belongs 2500 nM; to `Cc1cc(Nc2nccn3c(-c4ccc(Cl)c(F)c4F)cnc23)ccc1C(=O)NC(C)CCN` (centres unmarked) [Example 318, N-(4-aminobutan-2-yl)-4-[[3-(4-chloro-2,3-difluorophenyl)imidazo[1,2-a]pyrazin-8-yl]amino]-2-methylbenzamide; hydrochloride], 2500 nM. As for `CCc1cc(Nc2nccn3c(-c4ccc(OC)c(F)c4F)cnc23)ccc1C(=O)NC(CCN)C(F)(F)F` (centres unmarked) [Example 320, N-(4-amino-1,1,1-trifluorobutan-2-yl)-4-[[3-(2,3-difluoro-4-methoxyphenyl)imidazo[1,2-a]pyrazin-8-yl]amino]-2-ethylbenzamide; hydrochloride], the IC90 was 2700 nM.

As to `CCc1cc(Nc2nccn3c(-c4ccc(OC)c(F)c4F)cnc23)ccc1C(=O)N[C@@H](CN)c1ccccc1` [Example 321, N-[(1R)-2-amino-1-phenylethyl]-4-[[3-(2,3-difluoro-4-methoxyphenyl)imidazo[1,2-a]pyrazin-8-yl]amino]-2-ethylbenzamide; hydrochloride], the IC90 worked out at 4000 nM.

Turning to `CCc1cc(Nc2nccn3c(-c4ccc(OC)c(F)c4F)cnc23)ccc1C(=O)N[C@@H](CCN)C(=O)OC` [Example 322, methyl (2S)-4-amino-2-[[4-[[3-(2,3-difluoro-4-methoxyphenyl)imidazo[1,2-a]pyrazin-8-yl]amino]-2-ethylbenzoyl]amino]butanoate; hydrochloride], the IC90 amounted to 4400 nM.

The same assay, now with this note: Acinetobacter baumannii, ATCC17978, 16 h, 90% growth inhibitory concentration; Acinetobacter baumannii ATCC17978; Iso-Sensitest broth, OD 600 nm over 16h; read-out: ATCC17978 IC90.
In the case of `COc1ccc(-c2cnc3c(Nc4ccc(C(=O)N(C)CCOn5nnc6cccnc65)c(C)c4)nccn23)cc1F` [Example 305, 4-[[3-(3-fluoro-4-methoxyphenyl)imidazo[1,2-a]pyrazin-8-yl]amino]-N,2-dimethyl-N-[2-(triazolo[4,5-b]pyridin-3-yloxy)ethyl]benzamide], the IC90 worked out at 510 nM.

`Cc1cc(Nc2nccn3c(-c4ccc(OC(F)F)cc4)cnc23)ccc1C(=O)N1CCC(C(=O)NC[C@H](O)[C@@H](O)[C@H](O)[C@H](O)CO)CC1` [Example 306, 1-[4-[[3-[4-(difluoromethoxy)phenyl]im-idazo[1,2-a]pyrazin-8-yl]amino]-2-methylbenzoyl]-N-[(2S,3R,4R,5R)-2,3,4,5,6-pentahydroxyhexyl]piperidine-4-carboxamide]: the IC90 came out at 590 nM. `CCc1cc(Nc2nccn3c(-c4ccc(OC(F)F)c(F)c4F)cnc23)ccc1C(=O)NCC1(O)CNC1` [Example 307, 4-[[3-[4-(difluoromethoxy)-2,3-difluorophenyl]imidazo[1,2-a]pyrazin-8-yl]amino]-2-ethyl-N-[(3-hydroxyazetidin-3-yl)methyl]benzamide;hydro-chloride]: the IC90 was 620 nM.

With `Cc1cc(Nc2nccn3c(-c4ccc(OC(F)F)cc4)cnc23)ccc1C(=O)N(C)CCC1CCN(CCC#N)CC1` [Example 309, N-[2-[1-(2-cyanoethyl)piperidin-4-yl]ethyl]-4-[[3-[4-(difluoromethoxy)phenyl]im-idazo[1,2-a]pyrazin-8-yl]amino]-N,2-dimethylbenzamide], the IC90 came out at 690 nM.

As for `CCc1cc(Nc2nccn3c(-c4ccc(OC(F)F)c(F)c4F)cnc23)ccc1C(=O)NCC1(O)CCNC1` (centres unmarked) [Example 311, 4-[[3-[4-(difluoromethoxy)-2,3-difluorophenyl]imidazo[1,2-a]pyrazin-8-yl]amino]-2-ethyl-N-[(3-hydroxypyrrolidin-3-yl)methyl]benzamide;hydro-chloride], the IC90 was found to be 800 nM.

As for `Cc1cc(Nc2nccn3c(-c4ccc(OCC#CCN)c(F)c4)cnc23)ccc1C(=O)N(C)C` [Example 313, 4-[[3-[4-(4-aminobut-2-ynoxy)-3-fluorophenyl]imidazo[1,2-a]pyrazin-8-yl]amino]-N,N,2-trimethylbenzamide], the IC90 turned out to be 1200 nM. `COc1ccc(-c2cnc3c(Nc4ccc(C(=O)NCCCN5CCNC(C(=O)O)C5)c(Cl)c4)nccn23)c(F)c1F` (centres unmarked) [Example 314, 4-[3-[[2-chloro-4-[[3-(2,3-difluoro-4-methoxyphenyl)imidazo[1,2-a]pyrazin-8-yl]amino]benzoyl]amino]pro-pyl]piperazine-2-carboxylic acid;formic acid]: the IC90 came to 1300 nM. The same measure, in the same setting: to `COc1ccc(-c2cnc3c(Nc4ccc(C(=O)NCCCN)c(CC(F)F)c4)nccn23)c(F)c1F` [Example 316, N-(3-aminopropyl)-2-(2,2-difluoroethyl)-4-[[3-(2,3-difluoro-4-methoxyphenyl)imidazo[1,2-a]pyrazin-8-yl]amino]benzamide;formic acid] belongs 2100 nM; to `Cc1cc(Nc2nccn3c(-c4ccc(OCC#CCN)cc4)cnc23)ccc1C(=O)N(C)CCC1CCN(C)CC1` [Example 319, 4-[[3-[4-(4-aminobut-2-ynoxy)phenyl]imidazo[1,2-a]pyrazin-8-yl]amino]-N,2-dimethyl-N-[2-(1-methylpiperidin-4-yl)ethyl]benzamide;formic acid], 3300 nM; to `CCc1cc(Nc2nccn3c(-c4ccc(OC)c(F)c4F)cnc23)ccc1C(=O)NCCN1CCNCC1` [Example 323, 4-[[3-(2,3-difluoro-4-methoxyphenyl)imidazo[1,2-a]pyrazin-8-yl]amino]-2-ethyl-N-(2-piperazin-1-ylethyl)benzamide], 60 nM. As for `CCc1cc(Nc2nccn3c(-c4ccc(OC(F)F)c(F)c4F)cnc23)ccc1C(=O)NCCCNC(=O)CN(C)C` [Example 324, 4-[[3-[4-(difluoromethoxy)-2,3-difluorophenyl]imidazo[1,2-a]pyrazin-8-yl]amino]-N-[3-[[2-(dimethylamino)acetyl]amino]propyl]-2-ethylbenzamide], the IC90 came out at 110 nM. On the same count and under the same terms, under `CCc1cc(Nc2nccn3c(-c4ccc(OC(F)F)c(F)c4F)cnc23)ccc1C(=O)NCCC(=O)NCCN(C)C` [Example 325, 4-[[3-[4-(difluoromethoxy)-2,3-difluorophenyl]imidazo[1,2-a]pyrazin-8-yl]amino]-N-[3-[2-(dimethylamino)ethylamino]-3-oxopropyl]-2-ethylbenzamide] stands 150 nM. With `CCc1cc(Nc2nccn3c(-c4ccc(OC)c(F)c4F)cnc23)ccc1C(=O)NC(C)(C)CNC(=O)[C@@H](N)CCCCN` [Example 326, N-[1-[[(2S)-2,6-diaminohexanoyl]amino]-2-methylpropan-2-yl]-4-[[3-(2,3-difluoro-4-methoxyphenyl)imidazo[1,2-a]pyrazin-8-yl]amino]-2-ethylbenzamide], the IC90 was found to be 190 nM.

Take `COc1ccc(-c2cnc3c(Nc4ccc5c(c4)CCN(CCCO)C5=O)nccn23)c(F)c1F` [Example 327, 6-[[3-(2,3-difluoro-4-methoxyphenyl)imidazo[1,2-a]pyrazin-8-yl]amino]-2-(3-hydroxypropyl)-3,4-dihydroisoquinolin-1-one]: the IC90 was 290 nM.

Take `CCc1cc(Nc2nccn3c(-c4ccc(OC(F)F)c(F)c4F)cnc23)ccc1C(=O)NCCCO[C@H]1O[C@H](CO)[C@@H](O)[C@H](O)[C@H]1O` [Example 328, 4-[[3-[4-(difluoromethoxy)-2,3-difluorophenyl]imidazo[1,2-a]pyrazin-8-yl]amino]-2-ethyl-N-[3-[(2S,3R,4S,5S,6R)-3,4,5-trihydroxy-6-(hydroxymethyl)oxan-2-yl]oxypropyl]benzamide]: the IC90 is 300 nM. Same read-out and setting: under `C=CCNC(=O)c1ccc(Nc2nccn3c(-c4ccc(OC)c(F)c4F)cnc23)cc1CC` [Example 329, 4-[[3-(2,3-difluoro-4-methoxyphenyl)imidazo[1,2-a]pyrazin-8-yl]amino]-2-ethyl-N-prop-2-enylbenzamide] stands 140 nM. On the same count and under the same terms, to `CCc1cc(Nc2nccn3c(-c4ccc(OCC#N)c(F)c4Cl)cnc23)ccc1C(=O)NCCNC(=O)[C@@H](N)CCCNC(=N)N` [Example 330, N-[2-[[(2S)-2-amino-5-carbamimidamidopentanoyl]amino]ethyl]-4-[[3-[2-chloro-4-(cyanomethoxy)-3-fluorophenyl]imidazo[1,2-a]pyrazin-8-yl]amino]-2-ethylbenzamide;formic acid] belongs 110 nM.
